Experimental data taken from patent publication US9115169B2, “Method of treating tumors” (Lytix Biopharma AS, priority 2000, dated 2015).
Converted amounts (≈) assume the structure as drawn. Read-outs that look alike come from different tables or passages of the source. Where a SMILES comes first, the peptide text is derived from it. [ ]: non-standard residue; d: D form. The star is where a group is joined. Bip = N[C@@H](Cc1ccc(-c2ccccc2)cc1)C(=O)O; 2Nal = N[C@@H](Cc1ccc2ccccc2c1)C(=O)O; Cha = N[C@@H](CC1CCCCC1)C(=O)O; βNA = c1ccc2cc(N*)ccc2c1; OBn = c1ccc(CO*)cc1

Tests used:
MRSA ATCC 33591 [1] = tested on: MRSA ATCC 33591
Protocol: (§1) All strains were stored at −70° C. […] All assays were performed in duplicate.

MRSE ATCC 27626 [2] = tested on: MRSE ATCC 27626
Protocol: as §1

[3] = tested on: Escherichia coli ATCC 25922
[4] = tested on: Escherichia coli ATCC 25922; settings: ATCC 25922
[5] = tested on: Staphylococcus aureus ATCC 25923; settings: ATCC 25923
MRSE ATCC 27626 [6] = tested on: MRSE ATCC 27626; remark: listed apart in the source
Protocol: as §1

MRSA ATCC 33591 [7] = tested on: MRSA ATCC 33591; remark: listed apart in the source
Protocol: as §1

[8] = tested on: Staphylococcus aureus ATCC 25923

Protocol for P. aeruginosa: as §1

| SMILES | MBC MRSA (MRSA ATCC 33591 [1]) | MBC MRSE (MRSE ATCC 27626 [2]) | MIC E. coli ([3]; ATCC 25922) | MBC E. coli [4] | MBC S. aureus [5] | MIC MRSE (MRSE ATCC 27626 [6]; ATCC 27626) | MIC MRSA (MRSA ATCC 33591 [7]; ATCC 33591) | MIC S. aureus ([8]; ATCC 25923) | MIC P. aerug. (P. aeruginosa) | also measured |
| --- | --- | --- | --- | --- | --- | --- | --- | --- | --- | --- |
| N=C(N)NCCC[C@H](NC(=O)[C@H](Cc1ccc(O)cc1)NC(=O)[C@H](CCCNC(=N)N)NC(=O)[C@H](Cc1ccc2ccccc2c1)NC(=O)[C@@H](N)CCCNC(=N)N)C(=O)N[C@@H](Cc1ccc2ccccc2c1)C(N)=O [Arg-(2-Nal)-Arg-Tyr-Arg-(2-Nal)NH2] (H-R[2Nal]RYR[2Nal]-NH2; N-terminus assumed) | 5 µg/mL (≈ 4.79 µM) | 2.5 µg/mL (≈ 2.4 µM) | 10 µg/mL (≈ 9.59 µM) | 15 µg/mL (≈ 14.4 µM) | 5 µg/mL (≈ 4.79 µM) | 2.5 µg/mL (≈ 2.4 µM) | 2.5 µg/mL (≈ 2.4 µM) | 5 µg/mL (≈ 4.79 µM) | – | – |
| N=C(N)NCCC[C@H](NC(=O)[C@@H](N)Cc1ccc(-c2ccccc2)cc1)C(=O)OCc1ccccc1 [BipR-OBzl] (H-[Bip]-Arg-OBn; N-terminus assumed) | – | – | 150.0 µg/mL (≈ 308 µM) | – | – | 5.0 µg/mL (≈ 10.3 µM) | 5.0 µg/mL (≈ 10.3 µM) | 5.0 µg/mL (≈ 10.3 µM) | 100.0 µg/mL (≈ 205 µM) | – |
| COC(=O)[C@H](CCCNC(=N)N)NC(=O)[C@@H](N)Cc1ccc(-c2ccccc2)cc1 [BipR-OMe] (H-[Bip]-Arg-OMe; N-terminus assumed) | – | – | >300.0 µg/mL | – | – | 50.0 µg/mL (≈ 122 µM) | 50.0 µg/mL (≈ 122 µM) | 150.0 µg/mL (≈ 365 µM) | >300.0 µg/mL | – |
| N=C(N)NCCC[C@H](NC(=O)[C@@H](N)CC1CCCCC1)C(=O)OCc1ccccc1 [ChxAR-OBzl] (H-[Cha]-Arg-OBn; N-terminus assumed) | – | – | 300.0 µg/mL (≈ 718 µM) | – | – | 25.0 µg/mL (≈ 59.9 µM) | 25 to 37.5 µg/mL | 50 to 100 µg/mL | >300.0 µg/mL | – |
| N=C(N)NCCC[C@H](NC(=O)[C@@H](N)Cc1ccccc1)C(=O)OCc1ccccc1 [FR-Obzl] (H-Phe-Arg-OBn; N-terminus assumed) | – | – | – | – | – | – | – | – | >300.0 µg/mL | – |
| N=C(N)NCCC[C@H](NC(=O)[C@@H](N)Cc1ccccc1)C(=O)Nc1ccc2ccccc2c1 [FRβNA] (H-Phe-Arg-βNA) | – | – | – | – | – | – | – | – | – | Minimum inhibitory concentration E. coli ([3]; Table 9): >150 µg/mL; Minimum inhibitory concentration P. aeruginosa (P. aeruginosa; Table 9): >300 µg/mL; Minimum inhibitory concentration MRSE (MRSE ATCC 27626 [6]; Table 9): 5 µg/mL (≈ 11.2 µM); Minimum inhibitory concentration MRSA (MRSA ATCC 33591 [7]; Table 9): 12.5 µg/mL (≈ 28 µM); Minimum inhibitory concentration S. aureus ([8]; Table 9): 5 µg/mL (≈ 11.2 µM) |
| NCCCC[C@H](N)C(=O)O[C@@H](Cc1c[nH]c2ccccc12)C(=O)OCc1ccccc1 [Kψ(COO)WOBzl] | – | – | – | – | – | – | – | – | – | Minimum inhibitory concentration E. coli ([3]; ATCC 25922): 150 µg/mL (≈ 354 µM); Minimum inhibitory concentration P. aeruginosa (P. aeruginosa): 300 µg/mL (≈ 708 µM); Minimum inhibitory concentration MRSE (MRSE ATCC 27626 [6]; ATCC 27626): 37.5 µg/mL (≈ 88.5 µM); Minimum inhibitory concentration MRSA (MRSA ATCC 33591 [7]; ATCC 33591): 100 µg/mL (≈ 236 µM); Minimum inhibitory concentration S. aureus ([8]; ATCC 25923): 50 µg/mL (≈ 118 µM) |
| N=C(N)NCCC[C@H](N)C(=O)N[C@@H](Cc1c[nH]c2ccccc12)C(=O)OCc1ccccc1 [RW OBz] (H-Arg-Trp-OBn) | 50 µg/mL (≈ 111 µM) | 20 (20) μg/ml | >200 (>200) μg/ml | >200 (>200) μg/ml | 50 (50) μg/ml | 20 (20) μg/ml | 25 µg/mL (≈ 55.5 µM) | 50 (50) μg/ml | – | – |
| COC(=O)[C@H](CCCNC(=N)N)NC(=O)[C@H](Cc1c[nH]c2ccccc12)NC(=O)[C@@H](N)CCCNC(=N)N [RWR-OMe, H-L-Arg-L-Trp-L-Arg-OMe] (H-Arg-Trp-Arg-OMe) | >200 (>200) μg/ml | 200 µg/mL (≈ 377 µM) | – | >200 (>200) μg/ml | >200 (>200) μg/ml | – | – | – | – | – |
| N=C(N)NCCC[C@H](NC(=O)[C@H](Cc1c[nH]c2ccccc12)NC(=O)[C@@H](N)CCCNC(=N)N)C(=O)N[C@@H](Cc1c[nH]c2ccccc12)C(=O)OCc1ccccc1 [RWRW-OBzl, H-L-Arg-L-Trp-L-Arg-L-Trp-OBzl] (H-RWRW-OBn) | 5 to 10 µg/mL | 2.5 (2.5) μg/ml | 75 µg/mL (≈ 94.6 µM) | 100 µg/mL (≈ 126 µM) | 5 to 10 µg/mL | 2.5 (2.5) μg/ml | 5 µg/mL (≈ 6.31 µM) | 5 µg/mL (≈ 6.31 µM) | – | – |
